In patent US20230066011A1, “PYRROLOPYRIMIDINE DERIVATIVE, AND PHARMACEUTICAL COMPOSITION FOR PREVENTING OR TREATING PROTEIN KINASE-RELATED DISEASE COMPRISING SAME AS ACTIVE INGREDIENT” (VORONOI CO., LTD., priority 2019, published 2023):

Key:
human GST-CLK1 = target: T1, human GST-CLK1 (Homo sapiens, UniProt P49759); test: GST-CLK1 enzyme inhibition, ADP-Glo kinase assay; type: biochemical; settings: ATP 10 μM, GST-CLK1 129-end
T1 construct: purified human GST-CLK1 (129-end, SignalChem) enzyme; purchased SignalChem
Method in brief: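 Human GST-CLK1 (129-end, 3 ng) reacted with substrate and 10 μM ATP for 1 h at 25° C in 40 mM Tris-HCl pH 7.4, 20 mM MgCl2, 0.5 mg/mL BSA, 50 μM DTT. ADP-Glo luminescence was normalised to solvent control; IC50 (nM) from 3 data sets.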

LRRK2 [1] = target: T2, LRRK2 (Homo sapiens, UniProt Q5S007); test: LRRK2 enzyme inhibition, ADP-Glo kinase assay; type: biochemical; parameters: purchased Invitrogen PR8604B; settings: ATP 10 μM
Method in brief: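 Purified human LRRK2 (25 ng) with 10 μM ATP and 0.2 μg substrate in 40 mM Tris-HCl pH 7.4, 20 mM MgCl2, 0.5 mg/mL BSA, 50 μM DTT, 2 h at 25° C. ADP-Glo luminescence; 12-point compound series from 50 μM final; IC50 relative to solvent control.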
Target sequence in this assay (Q5S007 970-2527 limits assumed): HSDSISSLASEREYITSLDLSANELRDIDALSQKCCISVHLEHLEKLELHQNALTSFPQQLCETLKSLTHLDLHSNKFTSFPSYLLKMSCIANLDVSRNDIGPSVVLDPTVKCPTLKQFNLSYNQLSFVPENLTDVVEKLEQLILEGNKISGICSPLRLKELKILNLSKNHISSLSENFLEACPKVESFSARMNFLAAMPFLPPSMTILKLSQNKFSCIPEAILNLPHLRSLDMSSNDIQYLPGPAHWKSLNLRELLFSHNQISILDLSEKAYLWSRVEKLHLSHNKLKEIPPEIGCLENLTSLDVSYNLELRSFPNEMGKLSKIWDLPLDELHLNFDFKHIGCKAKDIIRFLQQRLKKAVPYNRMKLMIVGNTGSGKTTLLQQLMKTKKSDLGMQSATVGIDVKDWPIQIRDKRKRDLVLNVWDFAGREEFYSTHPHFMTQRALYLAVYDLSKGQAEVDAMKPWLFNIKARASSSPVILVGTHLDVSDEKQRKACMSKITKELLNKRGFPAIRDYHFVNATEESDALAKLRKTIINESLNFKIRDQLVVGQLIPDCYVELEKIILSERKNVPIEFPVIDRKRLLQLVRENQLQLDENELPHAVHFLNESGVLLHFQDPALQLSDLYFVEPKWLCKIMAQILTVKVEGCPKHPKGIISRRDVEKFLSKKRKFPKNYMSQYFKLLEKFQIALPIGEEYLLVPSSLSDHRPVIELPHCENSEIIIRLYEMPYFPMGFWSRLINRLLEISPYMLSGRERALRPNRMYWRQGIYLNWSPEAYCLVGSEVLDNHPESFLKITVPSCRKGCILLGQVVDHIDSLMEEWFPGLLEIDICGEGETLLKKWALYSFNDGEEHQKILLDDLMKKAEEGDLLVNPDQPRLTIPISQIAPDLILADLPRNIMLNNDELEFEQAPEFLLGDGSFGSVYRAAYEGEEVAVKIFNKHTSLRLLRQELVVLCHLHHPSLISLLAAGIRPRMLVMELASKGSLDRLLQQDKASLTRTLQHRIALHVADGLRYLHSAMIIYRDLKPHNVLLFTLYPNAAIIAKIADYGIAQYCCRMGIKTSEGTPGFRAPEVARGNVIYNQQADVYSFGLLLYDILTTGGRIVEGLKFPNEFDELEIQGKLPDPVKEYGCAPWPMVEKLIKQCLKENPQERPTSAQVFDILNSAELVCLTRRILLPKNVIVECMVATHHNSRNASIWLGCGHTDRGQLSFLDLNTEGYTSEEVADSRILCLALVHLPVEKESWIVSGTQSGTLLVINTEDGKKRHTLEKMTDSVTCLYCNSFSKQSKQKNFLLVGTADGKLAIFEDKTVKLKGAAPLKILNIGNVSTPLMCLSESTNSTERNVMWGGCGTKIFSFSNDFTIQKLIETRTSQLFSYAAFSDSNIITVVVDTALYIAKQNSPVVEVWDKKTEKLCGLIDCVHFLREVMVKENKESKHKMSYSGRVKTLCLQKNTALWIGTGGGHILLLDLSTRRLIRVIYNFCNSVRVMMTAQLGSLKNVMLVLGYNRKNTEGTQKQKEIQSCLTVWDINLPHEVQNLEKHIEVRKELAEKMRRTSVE

MDA-MB-468 cell line = test: Inhibition of proliferation of MDA-MB-468 cancer cells (Cell Titer-Glo); type: cell-based
Method in brief: (§1)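 GI50 values derive from Cell Titer-Glo luminescence, measured after a 10-minute room-temperature incubation with the reagent. Before that, cells plated at 2,000 per well in DMEM or RPMI medium were treated for 72 h with compound at 11 final concentrations spanning 10 μM down to 0.000169 μM in threefold steps.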

DYRK1 = DYRK1 (Homo sapiens, UniProt Q13627); test: Kinase HotSpot service (Reaction Biology Corporation), DYRK1; type: biochemical; settings: ATP 10 uM, read-out: DYRK1 IC50 (values indicated by *)
Experimental: (§2) The inhibitory activities of the compounds were measured at a 3-fold concentration gradient starting from a maximum compound concentration of […], and the values measured using the Kinase HotSpot service (Reaction Biology Corporation) are indicated by an asterisk (*).
(§3) All the experimental methods were performed as provided by the Kinase HotSpot Customer Protocol (http://www.reactionbiology.com//Kinase_Assay_Protocol).

LRRK2 (G2019S) = LRRK2 (G2019S) (Homo sapiens, UniProt Q5S007, G2019S); test: LRRK2 G2019S enzyme inhibition, ADP-Glo kinase assay; type: biochemical; parameters: purchased SignalChem L10-12GG; settings: ATP 25 μM
Method in brief: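 Purified human LRRK2 G2019S (16 ng) with 25 μM ATP and 0.2 μg substrate, 2 h at 25° C. in Tris-HCl pH 7.4, MgCl2, BSA, DTT buffer; compounds at 12 final concentrations, 50 μM down to 0.000001024 μM. ADP-Glo luminescence versus solvent control gave IC50.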

IL-6 = test: Inhibition of LPS-induced IL-6 secretion of THP-1 monocytes (ELISA); type: cell-based, human; settings: compound 0.5 μM, LPS 500 ng/mL, 24 hours; for inhibition at 0.5 µM: Homo sapiens, THP-1, read-out: THP1/IL6 (% inhib)
Experimental: (§4) To evaluate an inhibitory effect on cytokine secretion of monocytes, THP-1 cells (ATCC, #TIB-202) as a human-derived monocyte line were cultured in an RPMI-1640 (Hyclone, SH30027.01) medium supplemented with 10% fetal bovine serum (Hyclone, SH30084.03), 1% penicillin streptomycin (Welgene, LS202-02), and 50 μM 2-mercaptoethanol (Gibco, #21985023). In the test, the cells were seeded in a 48-well plate (SPL, #30048) at a density of 1.5 to 2×10^5 cells/250 μL per well, and cultured at 37° C. for 16 hours in a 5% CO2 incubator. Thereafter, the compound was diluted with DMSO so that the final concentration of the compound was 0.5 μM. Then, the cells were treated with the diluted compound before an hour of treatment with lipopolysaccharides (LPS) (Sigma, #L6529). After the treatment with the compound, the cells were treated with LPS so that the final concentration was 500 ng/mL. Then, a cell culture broth was collected after 24 hours of culture, and levels of cytokine IL-6 (R&D Systems, #D6050) and TNF-α (R&D Systems, #DTA00D) comprised in the culture broth were measured using respective ELISA kits. After an experiment was performed according to the manufacturer's guidelines, cell analysis was performed by measuring the optical density at 450 nm using a microplate reader.

human GST-DYRK1A = target: T3, human GST-DYRK1A (Homo sapiens, UniProt Q13627); test: GST-DYRK1A enzyme inhibition, ADP-Glo kinase assay; type: biochemical; settings: ATP 10 μM, GST-DYRK1A full length, read-out: DYRK1 IC50
T3 construct: purified human GST-DYRK1A (full length, Thermo Scientifics) enzyme; purchased Thermo Scientifics
Method in brief: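 Full-length human GST-DYRK1A (10 ng) with 10 μM ATP and specific substrate in 40 mM Tris-HCl pH 7.4, 20 mM MgCl2, 0.5 mg/mL BSA, 50 μM DTT, 1 h at 25 °C. ADP formation read by ADP-Glo luminescence relative to solvent control; IC50 from three data sets.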

TNF-α = test: Inhibition of LPS-induced TNF-α secretion of THP-1 monocytes (ELISA); type: cell-based, human; settings: compound 0.5 μM, LPS 500 ng/mL, 24 hours; for inhibition at 0.5 µM: Homo sapiens, THP-1, read-out: THP-1/TNF-α (% inhib)
Experimental: as §4

human DYRK1A and tau = test: Inhibition of tau phosphorylation, ClariCELL Kinase Cell-Based Assay, HEK 293 cells expressing human DYRK1A and tau; settings: for inhibition at 1 µM: HEK293, read-out: % inhibition at 1 uM, tau phosphorylation, compound 1 uM; for inhibition at 0.25 µM / inhibition at 0.5 µM: HEK293, tau phosphorylation
Experimental: An inhibitory effect on tau phosphorylation was determined using the ClariCELL™ Kinase Cell-Based Assay service (commercially available from CamaBio USA, Inc.). Human embryonic kidney (HEK 293) cells temporarily expressing human DYRK1A and tau were exposed to the compound, and then lysed to release cell proteins. In this case, the released tau was captured on a plate, and a degree of phosphorylation was quantified by ELISA using a tau phosphorylation-specific antibody.

CLK1 = target: T4, CLK1 (Homo sapiens, UniProt P49759); test: Kinase HotSpot service (Reaction Biology Corporation), CLK1; type: biochemical; settings: ATP 10 uM, read-out: CLK1 IC50 (values indicated by *)
T4 construct: purchased DiscoverX Corp. (ScanMAX Kinase analysis panel, service)
Experimental: as §2, §3

LRRK2 [2] = target: T2, LRRK2; test: Kinase HotSpot service (Reaction Biology Corporation), LRRK2; type: biochemical; parameters: purchased DiscoverX Corp. (ScanMAX Kinase analysis panel, service); settings: ATP 10 uM, read-out: LRRK2 IC50 (values indicated by *)
Experimental: as §2, §3
Target sequence in this assay (Q5S007 whole entry): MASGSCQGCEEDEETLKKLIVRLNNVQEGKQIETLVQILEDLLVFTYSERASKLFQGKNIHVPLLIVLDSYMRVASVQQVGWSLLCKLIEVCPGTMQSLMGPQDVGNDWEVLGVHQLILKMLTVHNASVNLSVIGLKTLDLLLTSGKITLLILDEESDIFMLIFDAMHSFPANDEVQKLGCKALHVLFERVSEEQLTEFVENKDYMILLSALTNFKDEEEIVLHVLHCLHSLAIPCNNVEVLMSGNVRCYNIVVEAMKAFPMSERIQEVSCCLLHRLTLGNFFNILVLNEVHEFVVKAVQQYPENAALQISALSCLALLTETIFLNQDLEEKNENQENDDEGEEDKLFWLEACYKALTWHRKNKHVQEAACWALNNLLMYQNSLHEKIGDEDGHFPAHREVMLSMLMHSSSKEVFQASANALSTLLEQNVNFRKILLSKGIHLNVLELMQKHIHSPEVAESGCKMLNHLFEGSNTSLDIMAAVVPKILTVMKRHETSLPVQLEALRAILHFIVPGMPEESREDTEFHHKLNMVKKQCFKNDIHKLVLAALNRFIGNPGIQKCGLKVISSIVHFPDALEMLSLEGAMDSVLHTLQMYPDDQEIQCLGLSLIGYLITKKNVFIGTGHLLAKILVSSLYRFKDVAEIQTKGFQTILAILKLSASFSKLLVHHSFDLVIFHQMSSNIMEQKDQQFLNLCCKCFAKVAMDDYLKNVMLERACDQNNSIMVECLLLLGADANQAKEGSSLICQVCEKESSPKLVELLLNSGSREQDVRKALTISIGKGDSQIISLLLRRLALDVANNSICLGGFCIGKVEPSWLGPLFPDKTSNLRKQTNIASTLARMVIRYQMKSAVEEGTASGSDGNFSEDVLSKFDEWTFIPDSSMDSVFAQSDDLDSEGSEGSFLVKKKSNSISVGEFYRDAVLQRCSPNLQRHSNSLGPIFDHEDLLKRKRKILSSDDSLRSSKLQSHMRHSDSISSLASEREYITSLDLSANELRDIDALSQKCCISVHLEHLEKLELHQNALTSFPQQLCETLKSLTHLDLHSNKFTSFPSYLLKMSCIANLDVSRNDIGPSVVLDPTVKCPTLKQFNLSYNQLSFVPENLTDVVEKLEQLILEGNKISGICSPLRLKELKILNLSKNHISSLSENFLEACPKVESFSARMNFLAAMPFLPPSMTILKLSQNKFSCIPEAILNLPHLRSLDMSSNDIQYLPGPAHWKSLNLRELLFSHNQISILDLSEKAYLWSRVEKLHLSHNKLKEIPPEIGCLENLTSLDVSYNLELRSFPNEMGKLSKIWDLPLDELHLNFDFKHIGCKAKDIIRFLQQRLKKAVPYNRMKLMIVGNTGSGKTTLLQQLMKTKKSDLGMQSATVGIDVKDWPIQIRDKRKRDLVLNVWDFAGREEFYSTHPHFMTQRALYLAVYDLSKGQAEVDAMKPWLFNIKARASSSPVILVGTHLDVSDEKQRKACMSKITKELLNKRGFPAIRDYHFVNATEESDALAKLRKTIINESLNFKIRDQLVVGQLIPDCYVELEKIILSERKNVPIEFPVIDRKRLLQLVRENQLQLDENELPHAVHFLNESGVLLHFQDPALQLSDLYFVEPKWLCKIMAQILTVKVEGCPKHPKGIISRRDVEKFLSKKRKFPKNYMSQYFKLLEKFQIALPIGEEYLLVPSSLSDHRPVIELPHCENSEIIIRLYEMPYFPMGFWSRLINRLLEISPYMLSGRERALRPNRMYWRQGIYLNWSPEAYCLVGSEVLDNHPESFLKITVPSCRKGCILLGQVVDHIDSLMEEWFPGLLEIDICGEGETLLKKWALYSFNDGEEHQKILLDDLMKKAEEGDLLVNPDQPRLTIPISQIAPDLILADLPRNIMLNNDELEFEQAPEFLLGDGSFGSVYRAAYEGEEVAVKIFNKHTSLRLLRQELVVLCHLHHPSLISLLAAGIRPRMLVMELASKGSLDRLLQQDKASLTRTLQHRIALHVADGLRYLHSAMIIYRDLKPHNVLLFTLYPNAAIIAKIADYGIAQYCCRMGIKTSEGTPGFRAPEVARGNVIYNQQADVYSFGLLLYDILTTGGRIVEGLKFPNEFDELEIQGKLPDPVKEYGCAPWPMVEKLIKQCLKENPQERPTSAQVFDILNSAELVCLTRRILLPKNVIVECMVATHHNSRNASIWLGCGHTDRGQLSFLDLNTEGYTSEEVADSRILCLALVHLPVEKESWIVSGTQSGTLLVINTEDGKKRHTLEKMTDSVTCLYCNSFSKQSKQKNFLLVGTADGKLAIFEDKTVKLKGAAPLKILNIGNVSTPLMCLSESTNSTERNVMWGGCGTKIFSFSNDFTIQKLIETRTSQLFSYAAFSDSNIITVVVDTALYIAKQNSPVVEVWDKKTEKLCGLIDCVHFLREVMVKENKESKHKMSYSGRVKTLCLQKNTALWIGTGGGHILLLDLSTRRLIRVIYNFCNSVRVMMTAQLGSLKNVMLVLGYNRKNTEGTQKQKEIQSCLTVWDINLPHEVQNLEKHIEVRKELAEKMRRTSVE

MDA-MB-231 cell line = test: Inhibition of proliferation of MDA-MB-231 cancer cells (Cell Titer-Glo); type: cell-based; settings: Homo sapiens, 72 hours
Method in brief: as §1

[3] = Homo sapiens, MDA-MB-468, 72 hours

T1 sequence (P49759 129-484 limits assumed): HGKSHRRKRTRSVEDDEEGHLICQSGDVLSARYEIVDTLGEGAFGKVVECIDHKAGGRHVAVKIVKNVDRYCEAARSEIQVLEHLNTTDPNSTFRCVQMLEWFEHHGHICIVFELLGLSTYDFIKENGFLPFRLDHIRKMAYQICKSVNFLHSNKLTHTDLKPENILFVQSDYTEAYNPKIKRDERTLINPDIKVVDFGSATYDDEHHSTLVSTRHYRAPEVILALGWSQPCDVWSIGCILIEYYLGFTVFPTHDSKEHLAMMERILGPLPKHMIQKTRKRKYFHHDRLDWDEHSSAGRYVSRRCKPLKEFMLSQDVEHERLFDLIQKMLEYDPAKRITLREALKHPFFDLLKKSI
LRRK2 (G2019S), sequence (Q5S007 970-2527 G2019S limits assumed): as the sequence (Q5S007 970-2527 limits assumed) above, with G1050S counted along it
T4 sequence (P49759 whole entry): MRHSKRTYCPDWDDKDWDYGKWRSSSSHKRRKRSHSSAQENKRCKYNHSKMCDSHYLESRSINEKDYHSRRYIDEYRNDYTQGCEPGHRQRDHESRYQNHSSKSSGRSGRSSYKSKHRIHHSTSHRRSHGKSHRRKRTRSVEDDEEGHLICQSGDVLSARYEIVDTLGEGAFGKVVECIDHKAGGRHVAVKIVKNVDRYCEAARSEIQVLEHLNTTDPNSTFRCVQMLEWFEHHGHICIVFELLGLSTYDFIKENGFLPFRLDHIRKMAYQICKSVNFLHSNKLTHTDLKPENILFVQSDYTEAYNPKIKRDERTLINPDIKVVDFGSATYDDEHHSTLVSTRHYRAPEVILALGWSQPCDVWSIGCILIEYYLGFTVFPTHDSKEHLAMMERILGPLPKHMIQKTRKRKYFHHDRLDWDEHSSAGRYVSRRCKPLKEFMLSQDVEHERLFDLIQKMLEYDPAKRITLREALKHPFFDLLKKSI

Row | SMILES | IC50 (human GST-CLK1) | IC50 (LRRK2 [1]) | IC50 (DYRK1) | inhibition at 1 µM (human DYRK1A and tau) | inhibition at 0.25 µM (human DYRK1A and tau; compound 0.25 uM) | inhibition at 0.5 µM (human DYRK1A and tau; compound 0.5 uM) | other results
1 | COc1cc(P2(=O)CCN(C3CC3)CC2)ccc1Nc1nc(C2CC2)c2c(C(F)(F)F)c[nH]c2n1 [Example 394, 1-cyclopropyl-4-(4-((4-cyclopropyl-5-(trifluoromethyl)-7H-pyrrolo[2,3-d]pyrimidin-2-yl)amino)-3-methoxyphenyl)-1,4-azaphosphinane4-oxide] | 301 to 1000 nM | < 100 nM | < 100 nM |  |  |  | GI50 (MDA-MB-468 cell line; [3]): 301 to 1000 nM
2 | CCc1nc(Nc2ccc(C(=O)N3CCC(N4CCOCC4)CC3)c3c2OCCO3)nc2[nH]cc(C(F)(F)F)c12 [Example 395, (8-((4-ethyl-5-(trifluoromethyl)-7H-pyrrolo[2,3-d]pyrimidin-2-yl)amino)-2,3-dihydrobenzo [b][1,4]dioxin-5-yl)(4-morpholino-piperidin-1-yl)methanone] | 101 to 300 nM | < 100 nM | < 100 nM |  |  |  | 
3 | CCc1nc(Nc2ccc(P3(=O)CCN(C4CC4)CC3)cc2OC)nc2[nH]cc(C(F)(F)F)c12 [Example 396, 1-cyclopropyl-4-(4-((4-ethyl-5-(trifluoromethyl)-7H-pyrrolo[2,3-d]pyrimidin-2-yl)amino)-3-methoxyphenyl)-1,4-azaphosphinane-4-oxide] | 301 to 1000 nM | 101 to 300 nM | < 100 nM |  |  |  | 
4 | CCCNc1nc(Nc2ccc(C(=O)N3CCN(C4COC4)CC3)c3c2OCCO3)nc2[nH]cc(C(F)(F)F)c12 [Example 402, (4-(oxetan-3-yl)piperazin-1-yl)(8-((4-(propylamino)-5-(trifluromethyl)-7H-pyrrolo[2,3-d]pyrimidin-2-yl)amino)-2,3-dihydrobenzo[b] [1,4]dioxin-5-yl)methanone] | < 100 nM |  |  |  |  |  | IC50 (LRRK2 (G2019S)): < 100 nM; THP1/IL6 (% inhib) (IL-6): 18.2 % inhib; IC50 (human GST-DYRK1A): < 100 nM; GI50 (MDA-MB-468 cell line; 72 hours): 301 to 1000 nM; THP-1/TNF-α (% inhib) (TNF-α): 1.4 % inhib; % inhibition at 0.25 uM (human DYRK1A and tau; tau phosphorylation, compound 0.25 uM): 7.9%; % inhibition at 0.5 uM (human DYRK1A and tau; tau phosphorylation, compound 0.5 uM): 26.5%; % inhibition at 1 uM (human DYRK1A and tau; tau phosphorylation, compound 1 uM): 61.7%
5 | C=CCNc1nc(Nc2ccc(S(=O)(=O)N3CCC(N4CCOCC4)CC3)cc2OC)nc2[nH]cc(C(F)(F)F)c12 [Example 469, N^4-allyl-N2-(2-methoxy-4-((4-morpholino-piperidin-1-yl)sulfonyl)phenyl)-5-(trifluoromethyl)-7H-pyrrolo[2,3-d]pyrimidine-2,4-diamine] |  |  | < 100 nM |  |  |  | IC50 (CLK1): < 100 nM; IC50 (LRRK2 [2]): < 100 nM; IC50 (LRRK2 (G2019S)): < 100 nM; GI50 (MDA-MB-231 cell line): 101 to 300 nM; GI50 (MDA-MB-468 cell line; [3]): 101 to 300 nM
6 | O=S(=O)(c1ccc(Nc2nc(C3CC3)c3c(C(F)(F)F)c[nH]c3n2)c2c1OCCO2)N1CCOCC1 [Example 470, 4-cyclopropyl-N-(8-(morpho-linosulfonyl)-2,3-dihydrobenzo [b][1,4]dioxin-5-yl)-5-(trifluoromethyl)-7H-pyrrolo[2,3-d]pyrimidin-2-amine] | 301 to 1000 nM |  | < 100 nM | 29.1% | 5.8% | 19.2% | 

Now from value to molecule, other results behind:

Row | IC50 (human GST-CLK1) | IC50 (LRRK2 [1]) | IC50 (DYRK1) | SMILES | inhibition at 1 µM (human DYRK1A and tau) | inhibition at 0.25 µM (human DYRK1A and tau; compound 0.25 uM) | inhibition at 0.5 µM (human DYRK1A and tau; compound 0.5 uM) | other results
7 | < 100 nM | < 100 nM | < 100 nM | N#Cc1c[nH]c2nc(Nc3ccc(C(=O)N4CCOCC4)c4c3OCCO4)nc(C3CC3)c12 [Example 220, 4-cyclopropyl-2-((8-(morpholine-4-carbonyl)-2,3-dihydrobenzo[b][1,4]dioxin-5-yl)amino)-7H-pyrrolo[2,3-d]pyrimidine-5-carbonitrile] |  |  |  | GI50 (MDA-MB-468 cell line; [3]): 101 to 300 nM
8 | 101 to 300 nM |  | < 100 nM | COc1cc(P(C)(C)=O)ccc1Nc1nc(C2CC2)c2c(C(F)(F)F)c[nH]c2n1 [Example 229, (4-((4-cyclopropyl-5-(trifluoromethyl)-7H-pyrrolo[2,3-d]pyrimidin-2-yl)amino)-3-methoxyphenyl)dimethylphosphine oxide] |  |  |  | 
9 | < 100 nM | < 100 nM |  | CNc1nc(Nc2ccc(C(=O)N3C[C@@H]4C[C@H]3CO4)c3c2OCCO3)nc2[nH]cc(C(F)(F)F)c12 [Example 408, ((1S,4S)-2-oxa-5-azabicyclo[2.2.1]heptan-5-yl)(8-((4-(methylamino)-5-(trifluoromethyl)-7H-pyrrolo[2,3-d]pyrimidin-2-yl)amino)-2,3-dihydrobenzo[b] [1,4]dioxin-5-yl)methanone] | 48.5% | 20.6% | 40.3% | inhibition at 0.5 µM (IL-6): 19.5%; IC50 (human GST-DYRK1A): < 100 nM; inhibition at 0.5 µM (TNF-α): 4.3%
10 | < 100 nM |  |  | O=C(c1ccc(Nc2nc(N[C@H]3CCOC3)c3c(C(F)(F)F)c[nH]c3n2)c2c1OCCO2)N1CCN(C2COC2)CC1 [Example 418, (S)-(4-(oxetan-3-yl)piperazin-1-yl)(8-((4-((tetra-hydrofuran-3-yl)amino)-5-(trifluoromethyl)-7H-pyrrolo[2,3-d]pyrimidin-2-yl)amino)-2,3-dihydrobenzo[b] [1,4]dioxin-5-yl)methanone] | 80.2% | 46.2% | 55.4% | IC50 (LRRK2 (G2019S)): < 100 nM; inhibition at 0.5 µM (IL-6): 35.5%; IC50 (human GST-DYRK1A): < 100 nM; inhibition at 0.5 µM (TNF-α): 8.5%
11 | < 100 nM |  | < 100 nM | O=C(c1ccc(Nc2nc(C3CC3)c3c(C(F)(F)F)c[nH]c3n2)c2c1CCO2)N1CC[C@@H](N2CCOCC2)C1 [Example 471, (R)-(7-((4-cyclopropyl-5-(trifluoromethyl)-7H-pyrrolo[2,3-d]pyrimidin-2-yl)amino)-2,3-dihydrobenzo-furan-4-yl)(3-morpholino-pyrrolidin-1-yl)methanone] | 42.8% | 3.9% | 29.6% | 
